Our source for the Ki values is US10023559B2 (Hoffmann-La Roche Inc., priority 2014, dated 2018).

SMILES strings stand for the structures. Where only a bound is given, the exact number is not on record here.

One assay deals with rat TAAR1 (Rattus norvegicus (Rat), UniProt Q923Y9). As to the kind of experiment: Radioligand binding assay on rat TAAR1. As to conditions: read-out: Ki(μM) rat; rat TAAR1, HEK-293 membranes, second value of cell pair mouse/rat.
Another assay has as its target mouse TAAR1 (Mus musculus (Mouse), UniProt Q923Y8). Kind of assay: Radioligand binding assay on mouse TAAR1.

Sequence of rat TAAR1 (Q923Y9 whole entry): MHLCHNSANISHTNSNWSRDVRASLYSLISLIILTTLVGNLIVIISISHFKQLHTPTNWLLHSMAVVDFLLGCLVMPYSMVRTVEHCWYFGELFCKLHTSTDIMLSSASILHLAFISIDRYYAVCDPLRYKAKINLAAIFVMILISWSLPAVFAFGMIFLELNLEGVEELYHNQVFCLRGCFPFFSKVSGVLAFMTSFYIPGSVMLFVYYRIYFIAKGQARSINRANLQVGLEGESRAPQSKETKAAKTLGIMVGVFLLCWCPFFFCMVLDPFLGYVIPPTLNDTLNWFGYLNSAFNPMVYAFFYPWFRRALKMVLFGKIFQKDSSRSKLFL
Sequence of mouse TAAR1 (Q923Y8 whole entry): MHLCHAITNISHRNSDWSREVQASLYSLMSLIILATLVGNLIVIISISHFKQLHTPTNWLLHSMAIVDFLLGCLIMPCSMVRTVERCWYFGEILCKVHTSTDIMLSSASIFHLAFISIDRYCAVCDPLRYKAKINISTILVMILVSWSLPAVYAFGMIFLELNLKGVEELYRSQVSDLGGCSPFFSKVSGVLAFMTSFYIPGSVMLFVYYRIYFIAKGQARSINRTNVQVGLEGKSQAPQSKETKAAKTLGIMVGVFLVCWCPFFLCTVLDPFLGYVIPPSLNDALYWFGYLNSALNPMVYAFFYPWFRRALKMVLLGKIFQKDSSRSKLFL
Method for rat TAAR1: Membrane Preparation and Radioligand Binding.
HEK-293 cells stably expressing rat TAAR1 were maintained at 37° C. and 5% CO2 in DMEM high glucose medium, containing fetal calf serum (10%, heat inactivated for 30 min at 56° C.), penicillin/streptomycin (1%), and 375 μg/ml geneticin (Gibco). Cells were released from culture flasks using trypsin/EDTA, harvested, washed twice with ice-cold PBS (without Ca^2+ and Mg^2+), pelleted at 1,000 rpm for 5 min at 4° C., frozen and stored at −80° C. Frozen pellets were suspended in 20 ml HEPES-NaOH (20 mM, pH 7.4) containing 10 mM EDTA and homogenized with a Polytron (PT 6000, Kinematica) at 14,000 rpm for 20 s. The homogenate was centrifuged at 48,000×g for 30 min at 4° C. Subsequently, the supernatant was removed and discarded, and the pellet resuspended in 20 ml HEPES-NaOH (20 mM, pH 7.4) containing 0.1 mM EDTA using the Polytron (20 s at 14,000 rpm). This procedure was repeated and the final pellet resuspended in HEPES-NaOH containing 0.1 mM EDTA and homogenized using the Polytron. Typically, aliquots of 2 ml membrane portions were stored at −80° C. With each new membrane batch the dissociation constant (Kd) was determined via a saturation curve. […] Nonspecific binding was defined as the amount of [H]—(S)-4-[(ethyl-phenyl-amino)-methyl]-4,5-dihydro-oxazol-2-ylamine bound in the presence of 10 M unlabeled ligand. All compounds were tested at a broad range of concentrations (10 pM to 10 μM) in duplicates. […] The 96 deep well plates were incubated for 1 hr at 4° C. Incubations were terminated by rapid filtration through Unifilter-96 plates (Packard Instrument Company) and glass filters GF/C (Perkin Elmer) presoaked for 1 hr in polyethylenimine (0.3%) and washed 3 times with 1 ml of cold binding buffer. After addition of 45 μl of Microscint 40 (PerkinElmer) the Unifilter-96 plate was sealed and after 1 hr the radioactivity counted using a TopCount Microplate Scintillation Counter (Packard Instrument Company).

For `O=C(Nc1ccc(CC2(F)CNC2)cc1)c1n[nH]c(C2CC2)c1Cl` [Example 56, 4-chloro-3-cyclopropyl-N-[4-[(3-fluoroazetidin-3-yl)methyl]phenyl]-1H-pyrazole-5-carboxamide], the values for the Ki at rat TAAR1 and at mouse TAAR1 were 0.0151 µM and 3.4 nM, respectively.

Turning to `COC1(Cc2ccc(NC(=O)c3cnc(C(F)(F)F)nc3)cc2)CNC1` [Example 74, N-[4-[(3-methoxyazetidin-3-yl)methyl]phenyl]-2-(trifluoromethyl)pyrimidine-5-carboxamide], the Ki – broadly, a dissociation constant, usually derived from enzyme kinetics or from competition with a known ligand – on rat TAAR1 came out at 0.0417 µM; at mouse TAAR1, 52.9 nM.

For the compound `COc1cc(C(=O)Nc2ccc(C[C@@H]3NC[C@@H]3F)cc2)ccn1` [Example 127, N-(4-(((2S,3S)-3-fluoroazetidin-2-yl)methyl)phenyl)-2-methoxyisonicotinamide], the figures for the Ki on rat TAAR1 and on mouse TAAR1 were 0.133 µM and 3.8 nM, respectively.

`F[C@H]1CN[C@H]1Cc1ccccc1` [Example 90, (2S,3S)-2-benzyl-3-fluoroazetidine]: the values for the Ki on rat TAAR1 and at mouse TAAR1 were 0.274 µM and 4380 nM, respectively.

With `Cc1cc(C(=O)Nc2ccc(C[C@@H]3NC[C@@H]3F)cc2)nc(C(F)(F)F)n1` [Example 126, N-(4-(((2S,3S)-3-fluoroazetidin-2-yl)methyl)phenyl)-6-methyl-2-(trifluoromethyl)pyrimidine-4-carboxamide], the Ki turned out to be 0.0224 µM at rat TAAR1 and 22.9 nM at mouse TAAR1.

In the case of `CO[C@H]1CN[C@H]1Cc1ccccc1` [Example 94, (2S,3S)-2-benzyl-3-methoxyazetidine], the Ki at rat TAAR1 worked out at 0.767 µM; at mouse TAAR1, 4050 nM.

`O=C(Nc1ccc(C[C@@H]2CCN2)cc1)c1cnc(C(F)(F)F)nc1` [Example 78, N-[4-[[(2R)-azetidin-2-yl]methyl]phenyl]-2-(trifluoromethyl)pyrimidine-5-carboxamide]: the results for the Ki at rat TAAR1 and at mouse TAAR1 were 0.269 µM and 29.3 nM, respectively.

As for `O=C(Nc1ccc(CC2(F)CNC2)cc1)c1ccc(Cl)nc1` [Example 54, 6-chloro-N-[4-[(3-fluoroazetidin-3-yl)methyl]phenyl]pyridine-3-carboxamide], the Ki at rat TAAR1 was found to be 0.0182 µM; on mouse TAAR1, 3 nM.

Take `Cc1[nH]nc(C(=O)Nc2ccc(OC3CNC3)cc2)c1Br` [Example 48, N-[4-(azetidin-3-yloxy)phenyl]-4-bromo-3-methyl-1H-pyrazole-5-carboxamide]: the Ki turned out to be 0.0943 µM on rat TAAR1 and 14.3 nM at mouse TAAR1.

As for `O=C(Nc1ccc(OC2CNC2)cc1)c1ccc(Cl)cc1` [Example 4, N-(4-(azetidin-3-yloxy)phenyl)-4-chlorobenzamide], the Ki on rat TAAR1 was 0.0087 µM; on mouse TAAR1, 1.1 nM.

With `O=C(Nc1ccc(C[C@@H]2CCN2)cc1)c1ccc(Cl)nc1` [Example 79, N-[4-[[(2R)-azetidin-2-yl]methyl]phenyl]-6-chloro-pyridine-3-carboxamide], the values for the Ki at rat TAAR1 and on mouse TAAR1 were 0.348 µM and 10 nM, respectively.

In the case of `O=C(Nc1ccc(SC2CNC2)cc1)c1[nH]nc(C2CC2)c1Cl` [Example 35, N-[4-(azetidin-3-ylsulfanyl)phenyl]-4-chloro-3-cyclopropyl-1H-pyrazole-5-carboxamide], the Ki on rat TAAR1 came to 0.0466 µM; at mouse TAAR1, 3.1 nM.

In the case of `FC(F)(F)c1cnc(Nc2ccc(C=C3CNC3)cc2)nc1` [Example 63, N-[4-(azetidin-3-ylidenemethyl)phenyl]-5-(trifluoromethyl)pyrimidin-2-amine], the Ki was 0.0385 µM at rat TAAR1 and 61.4 nM on mouse TAAR1.

Consider `CCc1n[nH]c(C(=O)Nc2ccc(CC3(F)CNC3)cc2)c1Cl` [Example 66, 4-chloro-3-ethyl-N-[4-[(3-fluoroazetidin-3-yl)methyl]phenyl]-1H-pyrazole-5-carboxamide], for which the results for the Ki at rat TAAR1 and at mouse TAAR1 were 0.0824 µM and 323 nM, respectively.

Consider `O=C(Nc1ccc(OC2CNC2)cc1F)c1cnc(C(F)(F)F)nc1` [Example 39, N-[4-(azetidin-3-yloxy)-2-fluoro-phenyl]-2-(trifluoromethyl)pyrimidine-5-carboxamide], for which the Ki at rat TAAR1 worked out at 0.476 µM; at mouse TAAR1 it was 62.8 nM.

Turning to `CCOc1ccc(C(=O)Nc2ccc(OC3CNC3)c(F)c2)cn1` [Example 28, N-[4-(azetidin-3-yloxy)-3-fluoro-phenyl]-6-ethoxy-pyridine-3-carboxamide], the Ki on rat TAAR1 amounted to 0.0284 µM; at mouse TAAR1, 9.6 nM.

For the compound `O=C(Nc1ccc(CC2CNC2)cc1)Nc1ccc(C(F)(F)F)cc1` [Example 113, 1-[4-(azetidin-3-ylmethyl)phenyl]-3-[4-(trifluoromethyl)phenyl]urea], the Ki at rat TAAR1 is 0.0042 µM; on mouse TAAR1, 8.7 nM.

With `CCc1n[nH]c(C(=O)Nc2ccc(C[C@@H]3NC[C@@H]3F)cc2)c1C` [Example 102, 3-ethyl-N-(4-(((2S,3S)-3-fluoroazetidin-2-yl)methyl)phenyl)-4-methyl-1H-pyrazole-5-carboxamide], the Ki is 0.0875 µM on rat TAAR1 and 14.8 nM at mouse TAAR1.

On to `O=C(Nc1ccc(C=C2CNC2)c(F)c1)c1ccc(Cl)nc1` [Example 86, N-(4-(azetidin-3-ylidenemethyl)-3-fluorophenyl)-6-chloronicotinamide], for which the Ki at rat TAAR1 turned out to be 0.0038 µM; on mouse TAAR1, 1.8 nM.

Regarding `CCOc1ccc(C(=O)Nc2ccc(CC3(F)CNC3)cc2)nn1` [Example 67, 6-ethoxy-N-[4-[(3-fluoroazetidin-3-yl)methyl]phenyl]pyridazine-3-carboxamide], the Ki at rat TAAR1 came out at 0.0968 µM; at mouse TAAR1 it was 29.4 nM.

For the compound `c1ccc(CC2CNC2)cc1` [Example 1, 3-benzylazetidine], the figures for the Ki on rat TAAR1 and at mouse TAAR1 were 0.701 µM and 1570 nM, respectively.

For `O=C(Nc1ccc(CC2CNC2)cc1)Nc1cccc(Cl)c1` [Example 115], the results for the Ki at rat TAAR1 and at mouse TAAR1 were 0.0138 µM and 27.2 nM, respectively.

As to `O=C(Nc1ccc(C[C@@H]2NC[C@@H]2F)cc1)c1cnc(C(F)(F)F)nc1` [Example 130, N-(4-(((2S,3S)-3-fluoroazetidin-2-yl)methyl)phenyl)-2-(trifluoromethyl)pyrimidine-5-carboxamide], the results for the Ki on rat TAAR1 and on mouse TAAR1 were 0.0156 µM and 28.2 nM, respectively.

Consider `F[C@@H]1CN[C@H]1Cc1ccccc1` [Example 91, (2S,3R)-2-benzyl-3-fluoroazetidine], for which the figures for the Ki at rat TAAR1 and on mouse TAAR1 were 0.149 µM and 1070 nM, respectively.

Consider `FC(F)(F)c1nccc(Nc2ccc(OC3CNC3)cc2)n1` [Example 8, N-[4-(azetidin-3-yloxy)phenyl]-2-(trifluoromethyl)pyrimidin-4-amine], for which the values for the Ki at rat TAAR1 and on mouse TAAR1 were 0.165 µM and 55 nM, respectively.

Regarding `O=C(Nc1ccc(OC2CNC2)cc1)c1cnc(OCC(F)(F)F)nc1` [Example 19, N-(4-(azetidin-3-yloxy)phenyl)-2-(2,2,2-trifluoroethoxy)pyrimidine-5-carboxamide], the Ki at rat TAAR1 is 0.0208 µM; at mouse TAAR1, 12.8 nM.

Consider `FC(F)(F)c1cnc(Nc2ccc(OC3CNC3)cc2)nc1` [Example 9, N-(4-(azetidin-3-yloxy)phenyl)-5-(trifluoromethyl)pyrimidin-2-amine], for which the Ki was found to be 0.105 µM on rat TAAR1 and 47.7 nM at mouse TAAR1.

Consider `F[C@@H]1CN[C@@H]1Cc1ccccc1` [Example 92, (2R,3R)-2-benzyl-3-fluoroazetidine], for which the Ki at rat TAAR1 stood at 0.607 µM; at mouse TAAR1, 244 nM.

With `COc1cc(C(=O)Nc2ccc(C[C@H]3NC[C@H]3F)cc2)ccn1` [Example 120, N-(4-(((2R,3R)-3-fluoroazetidin-2-yl)methyl)phenyl)-2-methoxyisonicotinamide], the Ki at rat TAAR1 is greater than 1.5 µM; on mouse TAAR1, 10.3 nM.

Consider `COc1cc(C(=O)Nc2ccc(CC3(F)CNC3)cc2)nc(C(F)(F)F)n1` [Example 68, 6 N-[4-[(3-fluoroazetidin-3-yl)methyl]phenyl]-6-methoxy-2-(trifluoromethyl)pyrimidine-4-carboxamide], for which the Ki on rat TAAR1 was determined as 0.0071 µM; at mouse TAAR1 it was 6.4 nM.

Regarding `O=C(Nc1ccc(C[C@H]2CCN2)cc1)c1ccc(Cl)cc1` [Example 71, N-[4-[[(2S)-azetidin-2-yl]methyl]phenyl]-4-chloro-benzamide], the figures for the Ki at rat TAAR1 and at mouse TAAR1 were 0.0065 µM and 1 nM, respectively.

For the compound `O=C(Nc1ccc(CC2(F)CNC2)cc1)c1cnc(OCC(F)(F)F)nc1` [Example 69, N-[4-[(3-fluoroazetidin-3-yl)methyl]phenyl]-2-(2,2,2-trifluoroethoxy)pyrimidine-5-carboxamide], the Ki at rat TAAR1 is 0.0361 µM; on mouse TAAR1, 42.1 nM.

`O=C(Nc1ccc(SC2CNC2)cc1)c1cnc(C2CC2)nc1` [Example 44, N-[4-(azetidin-3-ylsulfanyl)phenyl]-2-cyclopropyl-pyrimidine-5-carboxamide]: the Ki on rat TAAR1 amounted to 0.165 µM; on mouse TAAR1, 8.5 nM.

Consider `FC(F)(F)c1nccc(Nc2ccc(C=C3CNC3)cc2)n1` [Example 62, N-[4-(azetidin-3-ylidenemethyl)phenyl]-2-(trifluoromethyl)pyrimidin-4-amine], for which the Ki was 0.0181 µM at rat TAAR1 and 8.1 nM on mouse TAAR1.

As for `O=C(Nc1ccc(SC2CNC2)cc1)c1cnc(C(F)(F)F)nc1` [Example 45, N-[4-(azetidin-3-ylsulfanyl)phenyl]-2-(trifluoromethyl)pyrimidine-5-carboxamide], the Ki turned out to be 0.129 µM at rat TAAR1 and 35.5 nM on mouse TAAR1.

With `O=C(Nc1ccc(OC2CNC2)cc1)c1cnc(C(F)(F)F)cn1` [Example 75, N-[4-(azetidin-3-yloxy)phenyl]-5-(trifluoromethyl)pyrazine-2-carboxamide], the results for the Ki at rat TAAR1 and on mouse TAAR1 were 0.0106 µM and 5.2 nM, respectively.

`O=C(Nc1ccc(NC2CNC2)cc1)c1ccnc(C(F)(F)F)c1` [Example 3, N-[4-(azetidin-3-ylamino)phenyl]-2-(trifluoromethyl)pyridine-4-carboxamide]: the Ki was determined as 0.66 µM on rat TAAR1 and 77.7 nM on mouse TAAR1.

Regarding `CO[C@H]1CN[C@@H]1Cc1ccccc1` [Example 101, (2R,3S)-2-benzyl-3-methoxyazetidine], the Ki at rat TAAR1 turned out to be 2.04 µM; on mouse TAAR1 it was 2610 nM.
